Patent US8952073B2, “Estrogenic compounds, process for their production and pharmaceutical uses thereof” (The University of Ottawa, priority 2008, dated 2015)
Values joined by “and” are separate entries in the source; they are usually repeats but may differ in a detail not shown here. Equal entries are not always repeated. Where two headings read alike, the source gives them in different places.

Assays:
ERα [1] = biological target: T1, ERα (Homo sapiens, UniProt P03372); experiment: Relative binding affinity (RBA), radiolabel competition assay, estrogen alpha receptor; details: for RBAα: estradiol=100; for RBA for ERα: relative to estradiol (set at 100%)
T1 sequence (P03372 1-595): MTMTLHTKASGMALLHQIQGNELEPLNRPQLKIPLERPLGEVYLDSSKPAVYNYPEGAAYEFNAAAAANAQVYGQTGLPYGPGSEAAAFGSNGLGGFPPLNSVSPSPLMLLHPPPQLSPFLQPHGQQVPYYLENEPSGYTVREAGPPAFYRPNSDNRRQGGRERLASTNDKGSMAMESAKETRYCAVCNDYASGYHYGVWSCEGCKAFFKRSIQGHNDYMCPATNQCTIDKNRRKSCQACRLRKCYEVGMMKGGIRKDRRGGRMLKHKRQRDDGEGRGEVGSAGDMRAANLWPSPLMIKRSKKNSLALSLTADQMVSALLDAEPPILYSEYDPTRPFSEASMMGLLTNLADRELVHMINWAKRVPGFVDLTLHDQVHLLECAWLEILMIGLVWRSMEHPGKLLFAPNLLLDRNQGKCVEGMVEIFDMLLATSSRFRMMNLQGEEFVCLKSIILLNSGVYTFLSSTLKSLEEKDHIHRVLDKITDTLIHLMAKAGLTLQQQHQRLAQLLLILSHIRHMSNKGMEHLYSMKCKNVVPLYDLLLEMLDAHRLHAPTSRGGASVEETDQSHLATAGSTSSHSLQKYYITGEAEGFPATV

ERβ [2] = biological target: T2, ERβ (Homo sapiens, UniProt Q92731); experiment: Relative binding affinity (RBA), radiolabel competition assay, estrogen beta receptor; details: for RBAβ: estradiol=100; for RBA for ERβ: relative to estradiol (set at 100%)
ERα [3] = biological target: T1, ERα; experiment: Relative transcription assay (RTA), estrogen response element driven luciferase, estrogen alpha receptor; type: cell-based; details: for RTAα: relative transcription activity, estradiol=100
ERβ [4] = biological target: T2, ERβ; experiment: Relative transcription assay (RTA), estrogen response element driven luciferase, estrogen beta receptor; type: cell-based; details: for RTAβ: relative transcription activity, estradiol=100; for hormonal potency / transcriptional activation at ERβ, in words: result in words
intact hepatocytes = details: read-out: LC50, 2 hour exposure
ERβ vs. ERα = details: literature values; cited from earlier work
[5] = double bond in ring C (C9-C11 or C9-C8), tested as mixtures except entries 16, 17, 19, 20, 25, 26
[6] = double bond in ring C, mixtures except entries 16, 17, 19, 20, 25, 26
[7] = ring C saturated compounds, natural stereochemistry at C9
[8] = 9-hydroxy compounds, natural stereochemistry at C9

T2 sequence (Q92731 whole entry): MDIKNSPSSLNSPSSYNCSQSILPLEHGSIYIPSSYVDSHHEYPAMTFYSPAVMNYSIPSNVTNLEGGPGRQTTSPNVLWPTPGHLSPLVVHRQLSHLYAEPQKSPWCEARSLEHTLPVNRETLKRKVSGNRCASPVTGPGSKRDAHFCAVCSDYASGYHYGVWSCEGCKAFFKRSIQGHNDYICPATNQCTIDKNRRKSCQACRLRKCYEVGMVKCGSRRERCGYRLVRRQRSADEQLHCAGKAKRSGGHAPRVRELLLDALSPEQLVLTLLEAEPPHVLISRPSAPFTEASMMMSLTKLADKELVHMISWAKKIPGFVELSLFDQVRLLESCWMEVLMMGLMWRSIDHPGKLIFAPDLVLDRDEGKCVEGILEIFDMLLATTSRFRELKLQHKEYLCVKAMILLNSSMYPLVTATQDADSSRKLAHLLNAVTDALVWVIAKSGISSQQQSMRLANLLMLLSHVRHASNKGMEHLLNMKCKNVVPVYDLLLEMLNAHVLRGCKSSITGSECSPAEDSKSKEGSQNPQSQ

Which RBAα (ERα [1]; [5]) does the source give for `C[C@]12CC=C(c3ccc(O)cc3CCSCc3ccccc3)CC1CC[C@@H]2O` (stereo partly drawn) [Entry 25] here?
Its RBAα is 0.32.

What about the RBAβ/RBAα (ERβ [2]; [6]) of the same molecule?
The RBAβ/RBAα was 2.2.

What about the RBAβ (ERβ [2]; [5]) of the same molecule?
Its RBAβ is 0.76.

Which results are given for `C[C@]12CC[C@H](c3ccc(O)c(F)c3)CC1CC[C@@H]2O` (stereo partly drawn) [Entry 2]?
RBAα (ERα [1]; [7]): 1.0; RBA for ERα (ERα [1]): 1.0%; RBAβ (ERβ [2]; [7]): 8.7; RBA for ERβ (ERβ [2]): 8%; RBAβ/RBAα (ERβ [2]; [7]): 8.7; RTAα (ERα [3]): −8.3; RTAβ (ERβ [4]): 14; hormonal potency / transcriptional activation at ERβ, in words (ERβ [4]): weak agonist for ERβ; CC50 at 2 h (in vitro; intact hepatocytes): 400 to 450 µM

Which results are given for `C[C@]12CC[C@H](c3ccc(O)c(F)c3F)CC1CC[C@@H]2O` (stereo partly drawn) [Entry 5]?
RBAα (ERα [1]; [7]): 4.6; RBAβ (ERβ [2]; [7]): 42.8; RBAβ/RBAα (ERβ [2]; [7]): 9.3; RTAα (ERα [3]): 18; Ratio RTAβ/RTAα (ERβ [4]): 8.4; RTAβ (ERβ [4]): 151; CC50 at 2 h (in vitro; intact hepatocytes): 155 to 200 µM

For `C[C@]12CC[C@H](c3ccc(O)cc3F)CC1CC[C@@H]2O` (stereo partly drawn) [Entry 3], which RBAα (ERα [1]; [7]) is on record?
The RBAα was 27.3.

And the RBAβ (ERβ [2]; [7])?
The RBAβ was 135.5.

What about the “RBA for the ERβ receptor compared with estradiol, in words” value (ERβ [2]; result in words) of the same molecule?
Its value is “exceeded that of estradiol itself”.

And the RBAβ/RBAα (ERβ [2]; [7])?
The RBAβ/RBAα was 5.0.

And the RTAα (ERα [3])?
The RTAα was 44.

What about the “transcriptional activation at ERα, in words” value (ERα [3]; result in words) of the same molecule?
The value was “both an ERα and an ERβ agonist”.

And the “Ratio RTAβ/RTAα” value (ERβ [4])?
Its value is 3.6.

And the RTAβ (ERβ [4])?
Its RTAβ is 162.

What about the “hormonal potency / transcriptional activation at ERβ, in words” value (ERβ [4]) of the same molecule?
The value was “both an ERα and an ERβ agonist”.

And the CC50 at 2 h (in vitro; intact hepatocytes)?
The CC50 at 2 h was 250 to 280 µM.

For `C[C@]12CCC(c3cc(F)c(O)cc3F)=CC1CC[C@@H]2O` (stereo partly drawn) [Entry 17], which RBAα (ERα [1]; [5]) is on record?
The RBAα was 0.38.

What about the RBAβ/RBAα (ERβ [2]; [6]) of the same molecule?
The RBAβ/RBAα was 6.8.

And the RBAβ (ERβ [2]; [5])?
The RBAβ was 3.3.

Which RBAα (ERα [1]; [5]) does the source give for `C[C@]12CCC(c3ccc(O)cc3CCSCc3ccccc3)=CC1CC[C@@H]2O` (stereo partly drawn) [Entry 26] here?
Its RBAα is 0.31.

What about the RBAβ/RBAα (ERβ [2]; [6]) of the same molecule?
The RBAβ/RBAα was 0.86.

What about the RBAβ (ERβ [2]; [5]) of the same molecule?
Its RBAβ is 0.27.

And the RTAα (ERα [3])?
Its RTAα is 6.7.

What about the “Ratio RTAβ/RTAα” value (ERβ [4]) of the same molecule?
The value was 2.2.

And the RTAβ (ERβ [4])?
Its RTAβ is 15.6.

Which RTAβ (ERβ [4]) does the source give for `C[C@]12CC[C@@H]3c4ccc(O)cc4CC[C@H]3[C@@H]1CC[C@@H]2O` [Estradiol, 17β-estradiol, reference compound] here?
Its RTAβ is 100.

And the CC50 at 2 h (in vitro)?
The CC50 at 2 h was 400 to 450 µM.

What does the source list for `C[C@]12CC=C(c3ccc(O)cc3Cl)CC1CC[C@@H]2O` (stereo partly drawn) [Entry 19]?
RBAα (ERα [1]; [5]): 60; RBAβ/RBAα (ERβ [2]; [6]): 2.0; RBAβ (ERβ [2]; [5]): 118; RTAα (ERα [3]): 120; Ratio RTAβ/RTAα (ERβ [4]): 1.6; RTAβ (ERβ [4]): 157

For `C[C@]12CCC(c3ccc(O)cc3Cl)=CC1CC[C@@H]2O` (stereo partly drawn) [Entry 20], which RBAα (ERα [1]; [5]) is on record?
The RBAα was 195.

What about the RBAβ/RBAα (ERβ [2]; [6]) of the same molecule?
The RBAβ/RBAα was 1.7.

And the RBAβ (ERβ [2]; [5])?
The RBAβ was 331.

What about the RTAα (ERα [3]) of the same molecule?
Its RTAα is 98.

And the “Ratio RTAβ/RTAα” value (ERβ [4])?
The value was 2.1.

What about the RTAβ (ERβ [4]) of the same molecule?
The RTAβ was 188.

Which RBAα (ERα [1]; [8]) does the source give for `C[C@]12CC[C@](O)(c3cc(F)c(O)c(F)c3)CC1CC[C@@H]2O` (stereo partly drawn) [Entry 30] here?
The RBAα was 0.005.

And the RBAβ/RBAα (ERβ [2]; [8])?
Its RBAβ/RBAα is 4.6.

What about the RBAβ (ERβ [2]; [8]) of the same molecule?
The RBAβ was 0.023.

With `C[C@]12CC[C@H](c3ccc(O)cc3)CC1CC[C@@H]2O` (stereo partly drawn) [Entry 1] as the molecule, how does the RBAα (ERα [1]; [7]) read?
The RBAα was 1.5.

What about the “RBA for ERα” value (ERα [1]) of the same molecule?
Its value is 1.7% and 1.5%.

What about the “selective binding, favouring ERβ by a factor” value (ERβ [2]; ERβ over ERα) of the same molecule?
The value was 15.

And the RBAβ (ERβ [2]; [7])?
The RBAβ was 21.5.

What about the “RBA for ERβ” value (ERβ [2]) of the same molecule?
The value was 21.5%.

What about the RBAβ/RBAα (ERβ [2]; [7]) of the same molecule?
Its RBAβ/RBAα is 14.6.

And the RTAα (ERα [3])?
Its RTAα is 4.3.

What about the RTAα (ERα [3]; listed as 1*) of the same molecule?
Its RTAα is −8.9.

What about the “Ratio RTAβ/RTAα” value (ERβ [4]) of the same molecule?
Its value is 38.

What about the RTAβ (ERβ [4]) of the same molecule?
Its RTAβ is 164.

And the RTAβ (ERβ [4]; listed as 1*)?
Its RTAβ is 7.7.

And the CC50 at 2 h (in vitro; intact hepatocytes)?
The CC50 at 2 h was 320 to 400 µM.

What does the source list for `C[C@]12CC[C@](O)(c3ccc(O)cc3F)CC1CC[C@@H]2O` (stereo partly drawn) [Entry 29]?
RBAα (ERα [1]; [8]): 0.17; decrease in binding affinity (ERβ [2]; 9-hydroxy compound compared to the saturated analog): 37 fold; RBAβ/RBAα (ERβ [2]; [8]): 21; RBAβ (ERβ [2]; [8]): 3.6

What does the source list for `C[C@]12CC[C@H](c3ccc(O)cc3Cl)CC1CC[C@@H]2O` (stereo partly drawn) [Entry 8]?
RBAα (ERα [1]; [7]): 55.3; RTAα (ERα [3]): 88; RTAβ (ERβ [4]): 188

For `Cc1cc(O)ccc1[C@H]1CC[C@@]2(C)C(CC[C@@H]2O)C1` (stereo partly drawn) [Entry 9], which RBAα (ERα [1]; [7]) is on record?
Its RBAα is 2.8.

What about the RBAβ (ERβ [2]; [7]) of the same molecule?
The RBAβ was 33.6.

What about the RBAβ/RBAα (ERβ [2]; [7]) of the same molecule?
The RBAβ/RBAα was 11.9.

And the RTAα (ERα [3])?
The RTAα was −9.7.

And the RTAβ (ERβ [4])?
The RTAβ was 149.

What does the source list for `C[C@]12CC[C@](O)(c3ccc(O)c(F)c3)CC1CC[C@@H]2O` (stereo partly drawn) [Entry 28]?
RBAα (ERα [1]; [8]): 0.009; RBAβ/RBAα (ERβ [2]; [8]): 13; RBAβ (ERβ [2]; [8]): 0.12

For `C[C@]12CC[C@](O)(c3ccc(O)cc3)CC1CC[C@@H]2O` (stereo partly drawn) [Entry 27], which RBAα (ERα [1]; [8]) is on record?
Its RBAα is 0.01.

What about the RBAβ/RBAα (ERβ [2]; [8]) of the same molecule?
Its RBAβ/RBAα is 10.

And the RBAβ (ERβ [2]; [8])?
Its RBAβ is 0.1.

Which RBAα (ERα [1]; [7]) does the source give for `C[C@]12CC[C@H](c3cc(F)c(O)c(F)c3F)CC1CC[C@@H]2O` (stereo partly drawn) [Entry 7] here?
The RBAα was 0.19.

And the RBAβ (ERβ [2]; [7])?
The RBAβ was 1.73.

And the “further reduction in binding, factor” value (ERβ [2]; in comparison with entry 3)?
Its value is “about 10”.

And the RBAβ/RBAα (ERβ [2]; [7])?
The RBAβ/RBAα was 9.1.

What about the RTAα (ERα [3]) of the same molecule?
The RTAα was 11.

What about the “Ratio RTAβ/RTAα” value (ERβ [4]) of the same molecule?
The value was 4.8.

What about the RTAβ (ERβ [4]) of the same molecule?
Its RTAβ is 53.

And the CC50 (intact hepatocytes)?
Its CC50 is greater than 600 µM.

What about the CC50 at 2 h (in vitro; intact hepatocytes) of the same molecule?
The CC50 at 2 h was greater than 600 µM.

What does the source list for `C[C@]12CC=C(c3cc(F)c(O)cc3F)CC1CC[C@@H]2O` (stereo partly drawn) [Entry 16]?
RBAα (ERα [1]; [5]): 0.44; RBAβ/RBAα (ERβ [2]; [6]): 5.1; RBAβ (ERβ [2]; [5]): 2.6

With `N#Cc1cc(-c2ccc(O)c(F)c2)cc2ccc(O)cc12` [WAY 202196] as the molecule, how does the “binding affinity ERβ/ERα ratio” value (ERβ vs. ERα) read?
Its value is 78.

Which results are given for `C[C@]12CC[C@H](c3cc(F)c(O)c(F)c3)CC1CC[C@@H]2O` (stereo partly drawn) [Entry 4]?
RBAα (ERα [1]; [7]): 0.4; RBAβ (ERβ [2]; [7]): 0.28; RBAβ/RBAα (ERβ [2]; [7]): 7.0

For `C=Cc1cc(O)cc2nc(-c3ccc(O)c(F)c3)oc12` [ERB-041], which “binding affinity ERβ/ERα ratio” value (ERβ vs. ERα) is on record?
Its value is 226.
